Source: ChEMBL document CHEMBL1795339, “Novel purine-based fluoroaryl-1,2,3-triazoles as neuroprotecting agents: synthesis, neuronal cell culture investigations, and CDK5 docking studies” (Bioorg Med Chem Lett, 2011)
The source made the active and inactive calls. The rule behind the calls is not given here.

Test system: Hippocampal neuron
Experiment: Neuroprotective activity against Amyloid beta-induced mouse hippocampal neuronal death at 1 uM pretreated for 1 hr before Amyloid beta treatment measured after 48 hrs using propidium iodide staining by fluorescence […] microscopy
Assay type: functional, tissue-based
Settings: Hippocampus

Compound | Activity
CN1CC[C@H](c2c(O)cc(O)c3c(=O)cc(-c4ccccc4Cl)oc23)[C@H](O)C1 | Active
Clc1nc(NCc2ccccc2)c2ncn(Cc3cn(Cc4ccccc4)nn3)c2n1 | Active
Fc1cccc(F)c1Cn1cc(Cn2cnc3c(NCc4ccccc4)nc(Cl)nc32)nn1 | Active
CC[C@H](CO)Nc1nc(NCc2ccccc2)c2ncn(C(C)C)c2n1 | Active
Fc1c(F)c(F)c(Cn2cc(Cn3cnc4c(NCc5ccccc5)nc(Cl)nc43)nn2)c(F)c1F | inactive
Fc1ccccc1Cn1cc(Cn2cnc3c(NCc4ccccc4)nc(Cl)nc32)nn1 | Active
